Measured values as given in PMC12016938, “A small molecule PKCε inhibitor reduces hyperalgesia induced by paclitaxel or opioid withdrawal” (JCI Insight, 2025).
Like-named read-outs stand apart in the source and are kept apart here.

Molecular target: T1, PKCε (Homo sapiens, UniProt Q02156)
T1 sequence (Q02156 1-737): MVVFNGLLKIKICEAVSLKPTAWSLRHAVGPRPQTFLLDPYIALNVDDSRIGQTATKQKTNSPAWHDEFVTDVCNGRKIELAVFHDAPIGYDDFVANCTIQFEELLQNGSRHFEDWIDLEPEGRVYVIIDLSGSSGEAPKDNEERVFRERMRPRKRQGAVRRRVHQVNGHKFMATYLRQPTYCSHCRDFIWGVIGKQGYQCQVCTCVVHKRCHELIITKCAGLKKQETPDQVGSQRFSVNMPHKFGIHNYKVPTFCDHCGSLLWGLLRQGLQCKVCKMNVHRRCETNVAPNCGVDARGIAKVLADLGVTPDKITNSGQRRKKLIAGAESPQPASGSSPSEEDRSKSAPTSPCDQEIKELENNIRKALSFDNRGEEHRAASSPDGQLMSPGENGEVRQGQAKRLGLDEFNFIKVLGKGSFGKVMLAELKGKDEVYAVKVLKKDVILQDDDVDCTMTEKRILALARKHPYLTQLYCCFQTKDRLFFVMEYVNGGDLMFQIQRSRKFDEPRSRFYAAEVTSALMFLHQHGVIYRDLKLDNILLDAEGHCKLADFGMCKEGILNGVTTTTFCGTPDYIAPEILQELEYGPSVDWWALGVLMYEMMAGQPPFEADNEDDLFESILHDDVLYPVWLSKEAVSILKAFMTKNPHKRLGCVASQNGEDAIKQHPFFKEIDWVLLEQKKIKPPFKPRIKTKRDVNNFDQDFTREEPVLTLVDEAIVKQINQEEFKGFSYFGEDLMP
Test: Lance-FRET kinase assay, PKCε
Format: biochemical
Design: His; AVI; made in house; host or cells: Sf9 cells
Experimental: Kinase assays. CP612 was assayed against His-AVI–tagged human PKCε (1 nM) produced in Sf9 cells, and ROCK1 (Carna Biosciences; 5 nM) using the Lance-FRET kinase assay system (PerkinElmer Revvity). Other human recombinant PKCs (SignalChem Biotech) were assayed in triplicate at the following concentrations: PKCβII 1.6 nM, PKCγ 500 pM, PKCδ 5 nM, PKCθ 500 pM, and PKCζ 500 pM. PKCs were incubated in a 15 μL reaction volume with kinase buffer (20 mM Tris-HCL [pH 7.4], 10 mM MgCl2, 0.25 mM EGTA, 0.1 mg/mL BSA, and 0.15% Triton X-100), 50 nM ULight-labeled CREBtide […] (PerkinElmer, TRF0107, Revvity), and test compound. Reactions were initiated by adding 2.5 μM ATP at 27°C and were terminated after 60 minutes with 10 μL of 2.5× Stop Solution/Detection Mix containing 20 mM EDTA and 4 nM LANCE Ultra Europium anti–phospho-[…] (Ala25Ser) peptide antibody (PerkinElmer, TRF0200, Revvity). After incubation at 27°C for another 60 minutes, phosphorylation was detected using a FlexStation 3 Microplate Reader (Molecular Devices) in LANCE TR-FRET mode (excitation = 340 nm, emission = 665 nm) and expressed as relative fluorescence units (RFU). The percentage of inhibition was calculated as: (signal without test compound − signal with test compound)/(signal without test compound − signal without ATP) × 100. The Z’ factor for this assay ranged between 0.72 and 0.86.
Kinase assays used 11-point concentration-response curves and results were analyzed by nonlinear regression using Prism 9 (GraphPad Software) to determine IC50 values. Other analyses were performed on Prism 9 and Statistica (Tibco Software). Scores for pain threshold, conditioned place preference, and self-administration were analyzed by ANOVA using the following factors. […] We used a Tukey’s test for post hoc comparisons across groups and Dunnett’s test for post hoc comparisons with own pain thresholds at baseline values in the pain studies. Somatic withdrawal scores were analyzed with a Kruskal-Wallis test due to the nonparametric nature of those data, followed by nonparametric post hoc comparisons according to Siegel and Castellan ([40]). A P value less than 0.05 was considered significant.

N[C@H](CNC(=O)C1(c2ccc(Cl)cc2)CCCC1)c1ccc(C(=O)Nc2ccncc2)cc1 [CP612]
inhibition at 0.03 µM (30 nM CP612, read-out: Inhibition of novel PKCs (PKCε)): > 50% | Relative potency within the nPKC subfamily (Figure 1B): most potent | IC50 (Figure 1B PKC isozyme panel, read-out: IC50 PKCε): 2.03 nM | IC50 (mean of all runs (count 42 CP612; 38 CIDD-0072424), 2.5 μM ATP, read-out: IC50 (nM) [Enzyme: PKCε], mean): 1.9 ± 0.4 nM | ROCK1/PKCε ratio, mean (mean of ratios of all runs): 54.8
